# Several values for one entry are separate records, joined by “and”; a condition that tells them apart may be missing. Identical values can stand only once.
# Assays:
# [1] = Solubility of the prodrugs in PBS (67 mM phosphate buffer pH 7.4); settings: for solubility thermodynamic: 67 mM phosphate buffer pH 7.4 (PBS), 37 °C; for Sprodrug ± SD: PBS (67 mM phosphate buffer pH 7.4), 37° C.
# Protocol: The determination of the solubility of a prodrug at different pH values of interest according to the present invention is carried by adding excess solid prodrug to a container containing a buffer solution with well-defined pH. The mixture is rotated at constant temperature until an equilibrium between solid prodrug and prodrug in solution has established (that is until the prodrug concentration in the supernatant remains constant). At each measurement the pH of the supernatant is controlled and, if needed, adjusted to the desired pH.
# Suspensions of the prodrugs in 67 mM phosphate buffer pH 7.4 (PBS) were prepared by adding 10 mL PBS to approximately 5 mg prodrug. The suspensions were kept unstirred at 37° C. in an incubator hood. At appropriate time intervals over 23 days, about 500 μL samples were taken and after filtration (disposable syringe filters), the solutions were analyzed immediately by HPLC for parent drug and remaining prodrug. Quantitation of parent drug and prodrug was done from peak area measurements in relations to those of standards analysed by HPLC at the same conditions. […] For the diclofenac and ibuprofen prodrugs, the following method was used: Merck Hitachi L 6000 pump connected to Merck Hitachi 4250 UV detector. Reversed phase chromatography was performed using a C18 Gemini® RP column (150×4.6 mm, 5 μm particles) (Phenomenex, Torrance, Calif., USA) equipped with a SecurityGuard precolumn (Phenomenex, Torrance, Calif., USA). The flow rate was set at 1 mL/min and the column effluent was monitored at 230 nm. The mobile phase consisted of 35% (v/v) acetonitrile and 65% (v/v) of 0.1% (v/v) phosphoric acid pH 3.2. The retention times varied in the range of 3 to 30 min.
# From the observed relatively stable concentration of dissolved prodrugs measured in the suspensions after 8-9 day up to 23 days, the solubilities of the prodrugs (Sprodrug) were determined.
# [2] = Hydrolysis of the prodrugs in 80% human plasma; type: in vitro ADME; settings: for half-life: read-out: t1/2 in plasma
# Protocol: At 37±0.5° C., the hydrolysis rate of the prodrugs was measured in 80% human plasma. An appropriate aliquot (20-100 μL) of 1 mg/ml prodrug solution in methanol was transferred to 5.0 ml of preheated plasma. At appropriate time intervals, 300 μl sample aliquots were withdrawn and transferred to 600 μl acetonitrile and mixed thoroughly. After centrifugation at 13500 rpm for 5 min, the supernatant was analyzed by HPLC for parent drug and remaining prodrug.
# [3] = Stability (cleavage to parent drug) of prodrug suspensions in PBS pH 7.4; type: physicochemical; settings: for half-life at 0.5 mg/mL: 67 mM phosphate buffer (PBS), PBS pH 7.4, 37° C., read-out: t1/2 in PBS (converted); for apparent pseudo-zero-order rate constant k0: appearance of parent drug in PBS pH 7.4 suspension, 37° C.; for estimated pseudo first-order rate constant khyd: cleavage of prodrug in PBS pH 7.4, 37° C., calculated from k0 and Sprodrug
# Protocol: Suspensions of the prodrugs in 67 mM phosphate buffer pH 7.4 (PBS) were prepared by adding 10 mL PBS to approximately 5 mg prodrug. The suspensions were kept unstirred at 37° C. in an incubator hood. At appropriate time intervals over 23 days, about 500 μL samples were taken and after filtration (disposable syringe filters), the solutions were analyzed immediately by HPLC for parent drug and remaining prodrug. Quantitation of parent drug and prodrug was done from peak area measurements in relations to those of standards analysed by HPLC at the same conditions.
# From the observed relatively stable concentration of dissolved prodrugs measured in the suspensions after 8-9 day up to 23 days, the solubilities of the prodrugs (Sprodrug) were determined. In this time interval, the rate of appearance of parent drug was determined and an apparent pseudo-zero-order rate constant (k0) was obtained. By assuming that the dissolution rates were much faster than the conversion of the prodrugs to the parent drug, pseudo first-order rate constants (khyd) for cleavage of the prodrugs were calculated according to:
# [4] = Solubility at acidic pH, with and without DMA cosolvent; type: physicochemical
# Protocol: A suspension of DPX-2-0007 (as hydrochloride salt) was formed by adding 30 mg to 4 mL demineralized water. After rotation of the suspension at 37° C. for 3 days, 1.0 mL sample was taken and after filtration (disposable syringe filters), the solution was diluted in methanol:water 1:1 and analyzed immediately by HPLC for prodrug. […] The pH in the solution was measured to 3.40. The following HPLC method was used: Merck Hitachi L 6200 pump connected to Merck Hitachi 4250 UV detector. Reversed phase chromatography was performed using a RP 18 Symmetry Shields® column (150×4.6 mm, 5 μm particles) equipped with a SecurityGuard precolumn (Phenomenex, Torrance, Calif., USA). […] The retention time of naproxen and DPX-2-0007 were 19 and 5.8 min, respectively.
# A suspension of DPX-2-0006 was formed by adding 10 mg to 3 mL demineralized water, 0.05 mL 0.100 M HCl was added to obtain a pH of 3. After rotation of the suspension at 37° C. for 1 days, 0.5 mL sample was taken and after filtration (disposable syringe filters), the solution was diluted in methanol:water 1:1 and analyzed immediately by HPLC for prodrug. […] The HPLC method described in Example 29 was applied and the retention time of DPX-2-0006 was 14 min, respectively. N,N-dimethylacetamide (DMA) was added stepwise to the acidic suspension of DPX-2-0006 and the amount of DPX-2-000 dissolved in the presence of various volumes of DMA was determined after 1-3 days rotation at 37° C. as described above.
# [5] = pKa value; type: physicochemical
# [6] = Precipitation on addition of acidic prodrug solution to phosphate buffer pH 7.4; type: physicochemical; settings: 1.0 mL aqueous solution pH 3.4 added to 1.0 mL 67 mM phosphate buffer pH 7.4
# Protocol: At appropriate time intervals, samples were withdrawn and centrifuged for 5 min at 13,000 rpm and the supernatant was analysed by HPLC for DPX-4-0001 and formed ketorolac. The HPLC method described in Example 26 was applied. […] A slight increase in the ketorolac concentration is the result of pH dependent hydrolysis of the prodrug bond (FIG. 3).
# The pH in the suspension was measured to 7.0.
# [7] = pH 7.4, aqueous buffer, thermodynamic from solid
# [8] = hydrolysis in 80% human plasma at 37° C.
SMILES,"solubility thermodynamic [1, 7]",Sprodrug ± SD [1],"half-life [2, 8] [h]",half-life at 0.5 mg/mL [3] [days],apparent pseudo-zero-order rate constant k0 [3] [M/day],estimated pseudo first-order rate constant khyd [3] [day⁻¹],further results
"CC(C)Cc1ccc(C(C)C(=O)OCCc2ccccn2)cc1 (stereo not drawn) [DPX-3-0004, 2-(pyridin-2-yl)ethyl 2-(4-isobutylphenyl)propanoate]",15 ± 2 µg/mL,0.044 ± 0.004 mM,12.6,32,1e-06,0.022,–
"COc1ccc2cc(C(C)C(=O)OCCc3ccccn3)ccc2c1 (stereo not drawn) [DPX-2-0004, 2-(pyridin-2-yl)ethyl 2-(6-methoxynaphthalen-2-yl)propanoate]",19 ± 1 µg/mL,0.052 ± 0.002 mM,4.78,21,1.7e-06,0.033,–
COc1ccc2cc(C(C)C(=O)OCCn3ccnc3)ccc2c1 (stereo not drawn),146 ± 5 µg/mL,0.45 ± 0.02 mM,1.07,–,–,–,–
"CN(C)c1ccc(CCOC(=O)Cc2ccccc2Nc2c(Cl)cccc2Cl)cc1 [DPX-1-0001, 4-(dimethylamino)phenethyl 2-(2-(2,6-dichlorophenylamino)phenyl)acetate]",0.01 µg/mL,2e-05 mM,–,–,–,–,–
"COc1ccc2cc(C(C)C(=O)OCCn3cnc4ccccc43)ccc2c1 (stereo not drawn) [DPX-2-0006, 2-(1H-benzo[d]imidazol-1-yl)ethyl 2-(6-methoxynaphthalen-2-yl)propanoate]",–,5 ± 1 μg/mL and 0.015 ± 0.002 mM,8.52,11,1e-06,0.066,"solubility at 1 day ([4]; demineralized water acidified with HCl, 37 °C, pH 2.9, aqueous buffer, thermodynamic from solid, pH 2.9, 37° C., no DMA): 180 µg/mL"
"CCCc1nccn1CCCCCCOC(=O)Cc1ccccc1Nc1c(Cl)cccc1Cl [DPX-1-0010, 6-(2-propyl-1H-imidazol-1-yl)hexyl 2-(2-(2,6-dichiorophenylamino)phenyl)acetate]",< 0.4 µg/mL,<0.0008 mM,–,–,–,–,–
"O=C(Cc1ccccc1Nc1c(Cl)cccc1Cl)OCCOCCn1ccnc1-c1ccccc1 [DPX-1-0012, 2-(2-(2-phenyl-1H-imidazol-1-yl)ethoxy)ethyl 2-(2-((2,6-dichlorophenyl)-amino)phenyl)acetate]",< 0.3 µg/mL,<0.0006 mM,–,–,–,–,–
"Cn1ccnc1CCOC(=O)Cc1ccccc1Nc1c(Cl)cccc1Cl [DPX-1-0011, 2-(1-methyl-1H-imidazol-2-yl)ethyl 2-(2((2,6-dichlorophenyl)amino)phenyl)acetate]",0.1 µg/mL,0.0002 mM,–,–,–,–,–
"O=C(Cc1ccccc1Nc1c(Cl)cccc1Cl)OCCn1ccnc1 [DPX-1-0005, 2-(1H-imidazol-1-yl)ethyl 2-(2-(2,6-dichlorophenylamino)phenyl)acetate]",1 µg/mL,0.003 mM,–,–,–,–,–
"CC(C)Cc1ccc(C(C)C(=O)OCCn2cnc3ccccc32)cc1 (stereo not drawn) [DPX-3-0006, 2-(1H-benzo[d]imidazol-1-yl)ethyl 2-(4-isobutylphenyl)propanoate]",4 ± 0.2 µg/mL,0.012 ± 0.001 mM,–,15,5.7e-07,0.048,"stability on incubation in plasma ([2]; 80% human plasma, 37° C., incubation for 10 h): remained intact; t1/2 in plasma [2, 8]: stable"
"COc1ccc2cc(C(C)C(=O)OCCCN(C)c3ccccc3)ccc2c1 (stereo not drawn) [DPX-2-0003, 3-(methyl(phenyl)amino)propyl 2-(6-methoxynaphthalen-2-yl)propanoate]",< 1 µg/mL,<0.003 mM,–,–,–,–,–
"CN(CCOC(=O)Cc1ccccc1Nc1c(Cl)cccc1Cl)c1ccccc1 [DPX-1-0002, 2-(methyl(phenyl)amino)ethyl 2-(2-(2,6-dichlorophenylamino)phenyl)acetate]",< 0.1 µg/mL,<0.0002 mM,–,–,–,–,–
"O=C(Cc1ccccc1Nc1c(Cl)cccc1Cl)OCCn1ccnc1-c1ccccc1 [DPX-1-0007, 2-(2-phenyl-1H-imidazol-1-yl)ethyl 2-(2-((2,6-dichlorophenyl)amino)phenyl)acetate]",43 ± 2 µg/mL,0.086 ± 0.003 mM,0.817,242,2.5e-07,0.0029,–
"O=C(Cc1ccccc1Nc1c(Cl)cccc1Cl)OCCc1ccccn1 [DPX-1-0004, 2-(pyridin-2-yl)ethyl 2-(2-((2,6-dichlorophenyl)amino)phenyl)acetate]",3 ± 1 µg/mL,0.007 ± 0.001 mM,0.417,5,1.1e-06,0.15,–
"CCCc1nccn1CCOC(=O)Cc1ccccc1Nc1c(Cl)cccc1Cl [DPX-1-0008, 2-(2-propyl-1H-imidazol-1-yl)ethyl 2-(2-(2,6-dichlorophenylamino)phenyl)acetate]",0.3 µg/mL,0.0007 mM,–,–,–,–,–
"CN(C)c1ccc(CCO)cc1 [IPU 1, 4-(hydroxyethyl)-N,N-dimethylaniline]",–,–,–,–,–,–,pKa [5]: ~5.2
"COc1ccc2cc(C(C)C(=O)OCCn3ccnc3-c3ccccc3)ccc2c1 (stereo not drawn) [DPX-2-0007, 2-(2-phenyl-1H-imidazol-1-yl)ethyl 2-(6-methoxynaphthalen-2-yl)propanoate]",16 ± 1 µM,7 ± 1 µg/mL,1.03,11,1e-06,0.065,"solubility ([1]; 67 mM phosphate buffer (PBS), pH 7.4, aqueous buffer, thermodynamic from solid): 7 µg/mL; solubility at 3 days ([4]; demineralized water, 37 °C, pH 3.4, water, thermodynamic from solid, pH 3.4, hydrochloride salt in demineralized water, 3 days): 6800 µg/mL; fold increase in solubility at pH 3.4 compared to buffer pH 7.4 (PBS) ([4]; pH 3.4 vs pH 7.4): 1000 fold; precipitation after addition to buffer [6]: a precipitation was immediately observed"
"COc1ccc2cc(C(C)C(=O)OCCN(C)c3ccccc3)ccc2c1 (stereo not drawn) [DPX-2-0002, 2-(methyl(phenyl)amino)ethyl 2-(6-methoxynaphthalen-2-yl)propanoate]",< 0.2 µg/mL,<0.0006 mM,–,–,–,–,–
"COc1ccc2cc(C(C)C(=O)OCCc3ccc(N(C)C)cc3)ccc2c1 (stereo not drawn) [DPX-2-0001, 4-(dimethylamino)phenethyl 2-(6-methoxynaphthalen-2-yl)propanoate]",< 0.3 µg/mL,<0.0008 mM,–,–,–,–,–
"O=C(Cc1ccccc1Nc1c(Cl)cccc1Cl)OCCn1cnc2ccccc21 [DPX-1-0006, 2-(1H-benzo[d]imidazol-1-yl)ethyl 2-(2-((2,6-dichlorophenyl)amino)phenyl)acetate]",7 ± 2 µg/mL,0.015 ± 0.004 mM,0.05,4,2.4e-06,0.17,–
"CC(C)Cc1ccc(C(C)C(=O)OCCn2ccnc2-c2ccccc2)cc1 (stereo not drawn) [DPX-3-0007, 2-(2-phenyl-1H-imidazol-1-yl)ethyl 2-(4-isobutylphenyl)propanoate]",1 µg/mL,0.002 mM,–,–,–,–,–
"O=C(Cc1ccccc1Nc1c(Cl)cccc1Cl)OCCCCCCn1ccnc1 [DPX-1-0009, 6-(1H-imidazol-1-yl)hexyl 2-(2-(2,6-dichlorophenylamino)phenyl)acetate]",< 0.3 µg/mL,<0.0007 mM,–,–,–,–,–
